Earlier results in patent US20120301405A1, “Simple Mechanical Procedure and Product for Deterring Substance Abuse” (priority 2005, published 2012).
Like-named read-outs stand apart in the source and are kept apart here.

Key:
benzodiazepine receptors = settings: for AED (Approximate Equivalent Dose): based on clinical experience
[1] = for Time to Peak (onset of action, in hours): maximum levels of the drug in the blood after a given dose; for Elimination ½-Life (h) [active metabolite]: value in square brackets
[2] = atypical benzodiazepine receptor ligands table

Structure (SMILES)	AED (Approximate Equivalent Dose) (benzodiazepine receptors; benzodiazepine table)	Time to Peak (onset of action, in hours) [1]	Elimination ½-Life ([1]; parent drug)	also measured
N#CCCN1C(=O)C(O)N=C(c2ccccc2F)c2cc(Cl)ccc21 (centres unmarked) [Cinolazepam]	40 mg	0.5-2^ hours	9 h	
CN1CCN(C(=O)OC2c3nccnc3C(=O)N2c2ccc(Cl)cn2)CC1 (centres unmarked) [Zopiclone]				AED (Approximate Equivalent Dose) (benzodiazepine receptors; [2]): 15 mg; Elimination ½-Life [1, 2]: 4 to 6 h
CN1C(=O)CN=C(c2ccccc2)c2cc([N+](=O)[O-])ccc21 [Nimetazepam]	5 mg	0.5-3^ hours	14 to 30 h	
O=C1CN=C(c2ccccc2Cl)c2cc(Br)ccc2N1 [Phenazepam]	1 mg	1.5-4^ hours	60 h	
CCN(C(C)=O)c1cccc(-c2ccnc3c(C#N)cnn23)c1 [Zaleplon]				AED (Approximate Equivalent Dose) (benzodiazepine receptors; [2]): 20 mg
Cc1nnc2n1-c1sc(Br)cc1C(c1ccccc1Cl)=NC2 [Brotizolam]	0.25 mg	0.5-2^ hours	4 to 5 h	
Clc1ccc2c(c1)C(c1ccccc1)=NCc1nncn1-2 [Estazolam]	1 to 2 mg	1 to 5 h	10 to 24 h	
C#CCN1C(=O)CN=C(c2ccccc2)c2cc(Cl)ccc21 [Pinazepam]	20 mg		40 to 100 h	
CN1CCN(C(=O)O[C@H]2c3nccnc3C(=O)N2c2ccc(Cl)cn2)CC1 [Eszopiclone]				Elimination ½-Life [1, 2]: 6 h
CN1C(=O)CC(=O)N(c2ccccc2)c2cc(Cl)ccc21 [Clobazam]				AED (Approximate Equivalent Dose) (benzodiazepine receptors; [2]): 20 mg; Elimination ½-Life [1, 2]: 8 to 60 h
O=C1CN=C(c2ccccc2)c2cc([N+](=O)[O-])ccc2N1 [Nitrazepam]	10 mg	0.5-7^ hours	15 to 38 h	
Cc1nnc2n1-c1ccc(Cl)cc1C(c1ccccc1Cl)=NC2 [Triazolam]	0.25 mg	0.5-2^ hours	2 h	
CC(C)(C)OC(=O)c1ncn2c1[C@@H]1CCCN1C(=O)c1c(Br)cccc1-2 [Bretazenil]	0.5 mg		2.5 h	
Cc1c2c(cn1C)NC(=O)CN=C2c1ccccc1 [Premazepam]	3.75 mg	2 to 6 h	10 to 13 h	
CN1C(=O)C(O)N=C(c2ccccc2Cl)c2cc(Cl)ccc21 (centres unmarked) [Lormetazepam]	1 to 2 mg	0.5-2^ hours	10 to 12 h	
O=C(O)C1N=C(c2ccccc2)c2cc(Cl)ccc2NC1=O (centres unmarked) [Clorazepate]	15 mg	variable	36 to 100 h	
CCc1cc2c(s1)-n1c(C)nnc1CN=C2c1ccccc1Cl [Etizolam]	1 mg	1 to 2 h	6 h	
O=C1CN=C(c2ccccc2)c2cc(Cl)ccc2N1CC(F)(F)F [Halazepam]	20 to 40 mg	1 to 3 h	30 to 100 h	
Cc1ncc2n1-c1ccc(Cl)cc1C(c1ccccc1F)=NC2 [Midazolam]	5 to 8 mg	0.5-1^ hours		
O=C1Nc2ccc(Cl)cc2C(c2ccccc2)=NC1O (centres unmarked) [Oxazepam]		3 to 4 h	4 to 15 h	
CCc1cc2c(s1)N(C)C(=O)CN=C2c1ccccc1Cl [Clotiazepam]	5 to 10 mg	1 to 3 h	6 to 18 h	

Structure (SMILES)	AED (Approximate Equivalent Dose) (benzodiazepine receptors; benzodiazepine table)	Time to Peak (onset of action, in hours) [1]	Elimination ½-Life ([1]; parent drug)	also measured
CCN(CC)CCN1C(=O)CN=C(c2ccccc2F)c2cc(Cl)ccc21 [Flurazepam]	15 to 30 mg	1 to 1.5 h	40 to 250 h	
CN1C(=O)CN=C(c2ccccc2)c2cc(Cl)ccc21 [Diazepam]	10 mg	1 to 1.5 h	20 to 100 h	equivalent dose in an elderly individual on lorazepam versus what would be expected in a younger individual (benzodiazepine receptors; elderly individual on lorazepam): up to half; Elimination ½-Life (h) [active metabolite] [1]: [36-200] h
Cc1nnc2n1-c1ccc(Cl)cc1C(c1ccccc1)=NC2 [Alprazolam]	0.5 mg	1 to 2 h	6 to 12 h	
CN1C(=O)CN=C(c2ccccc2F)c2cc([N+](=O)[O-])ccc21 [Flunitrazepam]	1 mg	0.5-3^ hours	18 to 26 h	
O=C1CN=C(c2ccccc2)c2cc(Cl)ccc2N1CC1CC1 [Prazepam]	20 mg	2 to 6 h	36 to 200 h	
O=C1CN=C(c2ccccc2Cl)c2cc([N+](=O)[O-])ccc2N1 [Clonazepam]	0.5 mg	1 to 4 h	18 to 50 h	
Fc1ccccc1C1=NCC(=S)N(CC(F)(F)F)c2ccc(Cl)cc21 [Quazepam]	20 mg	1 to 5 h	39 to 120 h	
Cc1ccc(-c2nc3ccc(C)cn3c2CC(=O)N(C)C)cc1 [Zolpidem]				AED (Approximate Equivalent Dose) (benzodiazepine receptors; [2]): 20 mg; Elimination ½-Life [1, 2]: 2.6 h
CCOC(=O)c1ncn2c1CN(C)C(=O)c1cc(F)ccc1-2 [Flumazenil]				Elimination ½-Life [1, 2]: 1 h
CNC1=Nc2ccc(Cl)cc2C(c2ccccc2)=[N+]([O-])C1 [Chlordiazepoxide]				elimination half-life in the elderly compared to younger individuals ([1]; elderly vs younger individuals): twice as long
O=C1Nc2ccc(Cl)cc2C(c2ccccc2Cl)=NC1O (centres unmarked) [Lorazepam]	1 mg	2 to 4 h	10 to 20 h	
CN1C(=O)C(O)N=C(c2ccccc2)c2cc(Cl)ccc21 (centres unmarked) [Temazepam]	20 mg	0.5-3^ hours	8 to 22 h	
CN1C(=O)CN=C(C2=CCCCC2)c2cc(Cl)ccc21 [Tetrazepam]	100 mg	1 to 3 h	3 to 26 h	
O=C1CN=C(c2ccccc2)c2cc(Cl)ccc2N1 [Nordazepam]	10 mg		50 to 120 h	
O=C1CN=C(c2ccccc2F)c2cc(Cl)ccc2N1CC1CC1 [Flutoprazepam]	2 to 3 mg	0.5-9^ hours	60 to 90 h	
CN1CCN=C(c2ccccc2)c2cc(Cl)ccc21 [Medazepam]	10 mg		36 to 200 h	
O=C1CN=C(c2ccccc2Cl)c2cc(Cl)ccc2N1 [Delorazepam]	1 mg	1 to 2 h	60 to 140 h	
O=C1CN=C(c2ccccn2)c2cc(Br)ccc2N1 [Bromazepam]	5 to 6 mg	1 to 3 h	10 to 20 h	
CC1=CC(=O)N2CC(=O)N(C)c3ccc(Cl)cc3C2(c2ccccc2)O1 (centres unmarked) [Ketazolam]	15 to 30 mg	2.5-3^ hours	30 to 100 h	Elimination ½-Life (h) [active metabolite] [1]: [36-200] h
O=C1CN2CCOC2(c2ccccc2Cl)c2cc(Cl)ccc2N1 (centres unmarked) [Cloxazolam]	1 mg			
CN1CCN(/C=C2\N=C3CN=C(c4ccccc4Cl)c4cc([N+](=O)[O-])ccc4N3C2=O)CC1 [Loprazolam]	1 to 2 mg	0.5-4^ hours	6 to 12 h	
